US20220087951A1, “USE OF CANNABINOIDS IN THE TREATMENT OF EPILEPSY” (GW RESEARCH LIMITED, priority 2020, published 2022)

Columns and labels:
[1] = tested on: seizures in children and young adults with Dravet Syndrome and Lennox-Gastaut Syndrome; experiment: Example 1: primary seizure count during baseline and by cumulative day in the treatment period, CBD vs placebo added to baseline AED regimen; assay type: in vivo, human; conditions: for Ratio to Baseline (number of seizures with treatment to number of seizures at baseline): 5 mg/kg/day starting dose, negative binomial regression of primary seizure count; for percent change in number of seizures compared to baseline: 5 mg/kg/day, positive = decrease in seizures
Experimental: Children and young adults with Dravet Syndrome Lennox-Gastaut Syndrome were administered a highly purified extract of cannabidiol (CBD) obtained from a cannabis plant or placebo.
The highly purified CBD extract (greater than 98% CBD w/w) was administered in a formulation described herein at a starting dose of 5 mg/kg/day in addition to their baseline anti-epileptic drug (AED) regimen.
The starting dose increase from 5 mg/kg/day to 10 mg/kg/day after one week of administering the first dose of CBD. […] The titration period occurred over two weeks. The starting dose was expected to minimize side effects, and not intended to achieve efficacy.
All patients were taking at least two concomitant anti-epileptic drugs. These included clobazam; levetiracetam; topiramate; stiripentol; phenobarbital; lacsamide; valproic acid; zonisamide.
(§1) Prior to treatment with CBD, patients recorded the number of seizures they experienced. This established the baseline levels. During the course of treatment, patients recorded the number of seizures experienced each day.
The ratio in Table 9 is defined as the number of seizures with treatment to the number of seizures at baseline (e.g., before treatment). The percentage defines the percent change in number of seizures compared to baseline. Positive percentages reflect a decrease in the number of seizures compared to baseline, and negative percentages reflect an increase in number of seizures compared to baseline. The ratio to baseline of patients administered CBD extract includes data from patients treated with a maximum of 10 mg/kg/day or 20 mg/kg/day CBD extract. However, the amount of CBD administered to each treatment arm (10 mg/kg/day and 20 mg/kg/day) over the first 7 days of the study is the same.

[2] = tested on: seizures in patients with Tuberous Sclerosis Complex (TSC); experiment: Example 2: mean total seizures over time of TSC patients after administration of CBD (FIG. 2); assay type: in vivo, human
Experimental: Patients with TSC were administered a highly purified extract of cannabidiol (CBD) obtained from a cannabis plant described herein. Similar to Example 1, patients with a TSC diagnosis were administered a starting dose of 5 mg/kg/day CBD in addition to their baseline anti-epileptic drug (AED) regimen or placebo.
The daily dose was increased by 5 mg/kg increments until intolerance occurred or a maximum dose of 25 mg/kg/day was achieved. The starting dose increase from 5 mg/kg/day to 10 mg/kg/day occurred 7 days after administration of the first dose of CBD. […] The titration period occurred over two weeks. For patients in need of further seizure reduction, the dosage of 20 mg/kg/day was increased up to 25 mg/kg/day after one week.
All patients were taking at least two concomitant anti-epileptic drugs. These included clobazam; levetiracetam; topiramate; stiripentol; phenobarbital; lacsamide; valproic acid; zonisamide. The average number of concomitant antiepileptic drugs being taken was 2.7. The majority took either clobazam and/or valproic acid.
as §1

[3] = Solubility of the drug substance in water; assay type: physicochemical

C=C(C)[C@@H]1CCC(C)=C[C@H]1c1c(O)cc(CCCCC)cc1O [CBD, Cannabidiol]
Ratio to Baseline (number of seizures with treatment to number of seizures at baseline) ([1]; Day 1): 0.958
percent change in number of seizures compared to baseline ([1]; Day 1): [4.2%]
onset of seizure reduction ([1]; Dravet/Lennox-Gastaut patients, starting dose 5 mg/kg/day): within one week
Ratio to Baseline (number of seizures with treatment to number of seizures at baseline) ([1]; First 2 Days): 0.907
percent change in number of seizures compared to baseline ([1]; First 2 Days): [9.3%]
Ratio to Baseline (number of seizures with treatment to number of seizures at baseline) ([1]; First 3 Days): 0.882
percent change in number of seizures compared to baseline ([1]; First 3 Days): [11.8%]
Ratio to Baseline (number of seizures with treatment to number of seizures at baseline) ([1]; First 4 Days): 0.831
percent change in number of seizures compared to baseline ([1]; First 4 Days): [16.9%]
Ratio to Baseline (number of seizures with treatment to number of seizures at baseline) ([1]; First 5 Days): 0.793
percent change in number of seizures compared to baseline ([1]; First 5 Days): [20.7%]
Ratio to Baseline (number of seizures with treatment to number of seizures at baseline) ([1]; First 6 Days): 0.742
percent change in number of seizures compared to baseline ([1]; First 6 Days): [25.8%]
Ratio to Baseline (number of seizures with treatment to number of seizures at baseline) ([1]; First 7 Days): 0.717
percent change in number of seizures compared to baseline ([1]; First 7 Days): [28.3%]
reduction in seizures compared to baseline ([1]; after 4 days of treatment): significant reduction in seizures
reduction of seizures ([1]; from within 4 days of treatment, 5 mg/kg/day CBD): > 15%
time to seizure reduction after administration of starting dose ([1]; starting dose 5 mg/kg/day): ≤ 4 days
reduction in seizures compared to baseline ([2]; after 4 days of treatment): significant reduction in seizures
onset of seizure reduction ([2]; starting dose 5 mg/kg/day): within one week
time to seizure reduction after administration of starting dose ([2]; starting dose 5 mg/kg/day): ≤ 4 days
mean total seizures over time (FIG. 2) ([2]; titration period, starting dose 5 mg/kg/day): starts decreasing during the titration period
solubility in water [3]: insoluble in water
